Source: publication PMC7794397, “Curbing gastrointestinal infections by defensin fragment modifications without harming commensal microbiota” (Communications Biology, 2021)
Read-outs that look alike come from different tables or passages of the source. Residues, ends and D or L forms follow the SMILES beside them. *: point of attachment. Palmitoyl = CCCCCCCCCCCCCCCC(=O)*; AEEA = NCCOCCOCC(=O)O

What was measured:
Assay type in all cases: cell-based
[1] = tested on: S. aureus ATCC 25923; details: for Fold change in MIC: relative to MIC of first passage, Mean
Experimental: Development of resistance to the peptides was assessed with S. aureus and S. Typhimurium. […] Bacteria were cultured overnight at 37 °C at 150 rpm in TSB. Bacteria were washed twice with 10 mM sodium phosphate buffer containing 1% (w/v) TSB. […] After incubation, 100 µl of 6% TSB (w/v) was added and plates incubated in a humidified atmosphere for 21 h at 37 °C and 150 rpm.
The MIC, the lowest concentration of peptide/antibiotic that caused a lack of visible bacterial growth, was determined for each bacterial species. […] This was repeated for 25 passages.

[2] = tested on: B. subtilis ypuA promoter; assay: ypuA promoter luciferase reporter strain (cell envelope stress)
Experimental: A specific bacterial reporter strain with the genetic background of Bacillus subitilis 1S34, carrying the promoter of the ypuA gene, fused to the firefly luciferase reporter gene, was used to identify cell envelope-related damage caused by treatment with antimicrobial compounds[31]. The assay was carried out in agreement with former reports describing this method[20],[59]. Bacteria were cultured to an OD600 of 0.9 in LB broth with 5 µg/ml erythromycin at 37 °C and diluted to an OD600 of 0.02. Serial peptide dilutions (0.15–150 µM) were prepared in a microtiter plate and incubated with the adjusted bacterial suspension at 37 °C for 1 h. Subsequently, citrate buffer (0.1 M, pH 5) containing 2 mM luciferin (Iris Biotech, Germany) was added and luminescence was measured using a microplate reader (Tecan, Switzerland).

[3] = tested on: S. aureus NCTC8325; assay: Bacterial membrane potential (DiOC2(3)); details: 30 min of treatment
Experimental: For determination of membrane potential changes, S. aureus NCTC8325 was grown to log-phase in LB + 0.1% glucose, harvested and the optical density at 600 nm (OD600) was adjusted to 0.5. Bacteria were incubated with 30 µM 3,3′-diethyloxacarbocyanine iodide (DiOC2(3), Invitrogen™) for 15 min in the dark and treated with serial peptide concentrations for 30 min. The protonophore carbonyl cyanide m-chlorophenyl hydrazone (CCCP, Sigma Aldrich) was used as a positive control and DMSO or 0.01% acetic acid as negative controls. Fluorescence was measured at an excitation wavelength of 485 nm and two emission wavelengths, 530 nm (green) and 630 (nm) red, using a microplate reader (Tecan, Switzerland).

[4] = tested on: several pathogenic bacteria; assay: Radial diffusion assay, all tested strains
Experimental: Antimicrobial activity was analyzed by radial diffusion assay. Log-phase bacteria were cultivated for up to 18 h in TSB (TSB, Becton Dickinson, USA), washed and diluted to 4 × 10^6 CFU in 10 ml agar. Bacteria were incubated in 10 ml of 10 mM sodium phosphate, pH 7.4, containing 0.3 mg/ml of TSB powder and 1% (w/v) low EEO-agarose (AppliChem). 1 µg of each lipopeptide was pipetted into punched wells in a final volume of 4 µl and diffused into the gel for 3 h at 37 °C. After that, a nutrient-rich gel with 6% TSB (w/v) and 1% agarose in 10 mM sodium phosphate buffer was poured on top of the first gel and incubated for up to 24 h at 37 °C. Then the diameter of inhibition zones was measured.

**Q.** Which “Fold change in MIC” value ([1]; Day (passage) 0) does the source give for `CCCCCCCCCCCCCCCC(=O)NCCOCCOCC(=O)N[C@@H](CCCNC(=N)N)C(=O)NCC(=O)N[C@@H](CCCCN)C(=O)N[C@@H](C)C(=O)N[C@@H](CCCCN)C(=O)N[C@@H](CS)C(=O)N[C@@H](CS)C(=O)N[C@@H](CCCCN)C(=O)O` [Pam-3] ({Palmitoyl-AEEA}-RGKAKCCK-OH; C-terminus assumed) here?
**A.** 1.0

**Q.** What about the “Fold change in MIC” value ([1]; Day (passage) 1) of the same compound?
**A.** 0.7

**Q.** And the “Fold change in MIC” value ([1]; Day (passage) 2)?
**A.** 1.0

**Q.** What about the “Fold change in MIC” value ([1]; Day (passage) 3) of the same compound?
**A.** 1.0

**Q.** And the “Fold change in MIC” value ([1]; Day (passage) 4)?
**A.** 1.3

**Q.** And the “Fold change in MIC” value ([1]; Day (passage) 5)?
**A.** 1.2

**Q.** What about the “Fold change in MIC” value ([1]; Day (passage) 6) of the same compound?
**A.** 0.8

**Q.** And the “Fold change in MIC” value ([1]; Day (passage) 7)?
**A.** 0.7

**Q.** What about the “Fold change in MIC” value ([1]; Day (passage) 8) of the same compound?
**A.** 0.8

**Q.** And the “Fold change in MIC” value ([1]; Day (passage) 9)?
**A.** 1.0

**Q.** What about the “Fold change in MIC” value ([1]; Day (passage) 10) of the same compound?
**A.** 1.3

**Q.** What about the “Fold change in MIC” value ([1]; Day (passage) 11) of the same compound?
**A.** 1.3

**Q.** What about the “Fold change in MIC” value ([1]; Day (passage) 12) of the same compound?
**A.** 1.2

**Q.** What about the “Fold change in MIC” value ([1]; Day (passage) 13) of the same compound?
**A.** 1.2

**Q.** And the “Fold change in MIC” value ([1]; Day (passage) 14)?
**A.** 1.3

**Q.** And the “Fold change in MIC” value ([1]; Day (passage) 15)?
**A.** 1.2

**Q.** And the “Fold change in MIC” value ([1]; Day (passage) 16)?
**A.** 0.7

**Q.** And the “Fold change in MIC” value ([1]; Day (passage) 17)?
**A.** 1.3

**Q.** What about the “Fold change in MIC” value ([1]; Day (passage) 18) of the same compound?
**A.** 0.7

**Q.** And the “Fold change in MIC” value ([1]; Day (passage) 19)?
**A.** 1.8

**Q.** What about the “Fold change in MIC” value ([1]; Day (passage) 20) of the same compound?
**A.** 1.2

**Q.** What about the “Fold change in MIC” value ([1]; Day (passage) 21) of the same compound?
**A.** 1.0

**Q.** And the “Fold change in MIC” value ([1]; Day (passage) 22)?
**A.** 1.3

**Q.** And the “Fold change in MIC” value ([1]; Day (passage) 23)?
**A.** 1.2

**Q.** And the “Fold change in MIC” value ([1]; Day (passage) 24)?
**A.** 1.3

**Q.** And the “Fold change in MIC” value ([1]; Day (passage) 25)?
**A.** 1.2

**Q.** And the “increase in MIC (in words)” value ([1]; sub-inhibitory concentrations for 25 passages)?
**A.** no significant increase

**Q.** What about the “activation of the ypuA promoter” value [2] of the same compound?
**A.** 2 fold

**Q.** What about the “ypuA promoter activation (relative to untreated = 1)” value ([2]; 0.031x MIC Pam-3, 1 h, experiment 1) of the same compound?
**A.** 1.05

**Q.** And the “ypuA promoter activation (relative to untreated = 1)” value ([2]; 0.031x MIC Pam-3, 1 h, experiment 2)?
**A.** 1.15

**Q.** And the “ypuA promoter activation (relative to untreated = 1)” value ([2]; 0.031x MIC Pam-3, 1 h, experiment 3)?
**A.** 1.17

**Q.** And the “ypuA promoter activation (relative to untreated = 1)” value ([2]; 0.062x MIC Pam-3, 1 h, experiment 1)?
**A.** 1.16

**Q.** What about the “ypuA promoter activation (relative to untreated = 1)” value ([2]; 0.062x MIC Pam-3, 1 h, experiment 2) of the same compound?
**A.** 1.27

**Q.** And the “ypuA promoter activation (relative to untreated = 1)” value ([2]; 0.062x MIC Pam-3, 1 h, experiment 3)?
**A.** 1.36

**Q.** And the “ypuA promoter activation (relative to untreated = 1)” value ([2]; 0.125x MIC Pam-3, 1 h, experiment 1)?
**A.** 1.38

**Q.** What about the “ypuA promoter activation (relative to untreated = 1)” value ([2]; 0.125x MIC Pam-3, 1 h, experiment 2) of the same compound?
**A.** 1.48

**Q.** And the “ypuA promoter activation (relative to untreated = 1)” value ([2]; 0.125x MIC Pam-3, 1 h, experiment 3)?
**A.** 1.76

**Q.** What about the “ypuA promoter activation (relative to untreated = 1)” value ([2]; 0.25x MIC Pam-3, 1 h, experiment 1) of the same compound?
**A.** 2.12

**Q.** And the “ypuA promoter activation (relative to untreated = 1)” value ([2]; 0.25x MIC Pam-3, 1 h, experiment 2)?
**A.** 2

**Q.** And the “ypuA promoter activation (relative to untreated = 1)” value ([2]; 0.25x MIC Pam-3, 1 h, experiment 3)?
**A.** 2.57

**Q.** And the “ypuA promoter activation (relative to untreated = 1)” value ([2]; 0.5x MIC Pam-3, 1 h, experiment 1)?
**A.** 0.23

**Q.** What about the “ypuA promoter activation (relative to untreated = 1)” value ([2]; 0.5x MIC Pam-3, 1 h, experiment 2) of the same compound?
**A.** 0.18

**Q.** And the “ypuA promoter activation (relative to untreated = 1)” value ([2]; 0.5x MIC Pam-3, 1 h, experiment 3)?
**A.** 0.26

**Q.** What about the “ypuA promoter activation (relative to untreated = 1)” value ([2]; 1x MIC Pam-3, 1 h, experiment 1) of the same compound?
**A.** 0

**Q.** And the “ypuA promoter activation (relative to untreated = 1)” value ([2]; 1x MIC Pam-3, 1 h, experiment 2)?
**A.** 0

**Q.** And the “ypuA promoter activation (relative to untreated = 1)” value ([2]; 1x MIC Pam-3, 1 h, experiment 3)?
**A.** 0.02

**Q.** And the “ypuA promoter activation (relative to untreated = 1)” value ([2]; 2x MIC Pam-3, 1 h, experiment 1)?
**A.** 0

**Q.** And the “ypuA promoter activation (relative to untreated = 1)” value ([2]; 2x MIC Pam-3, 1 h, experiment 2)?
**A.** 0

**Q.** And the “ypuA promoter activation (relative to untreated = 1)” value ([2]; 2x MIC Pam-3, 1 h, experiment 3)?
**A.** 0

**Q.** What about the “effect on membrane potential (in words)” value [3] of the same compound?
**A.** breakdown of the membrane potential in a concentration-dependent manner

**Q.** And the “antimicrobial activity (in words)” value [4]?
**A.** potent inhibition
